Experimental data from ChEMBL document CHEMBL1201862, “PubChem BioAssay data set” (2004).
Active and inactive are the calls of the source. Rule as the data show it: actives have a measured IC50 and inactives only a lower limit.

Molecular target: Envelope glycoprotein gp160 (Human immunodeficiency virus 1, UniProt Q6QLK5)
Test: cell-free HIV fusion peptide-binding blockers – biochemical, uHTS, fluorescence dequenching, […] (AID 1986)

Sequence of Envelope glycoprotein gp160 (Q6QLK5 whole entry, the tested form may be a part): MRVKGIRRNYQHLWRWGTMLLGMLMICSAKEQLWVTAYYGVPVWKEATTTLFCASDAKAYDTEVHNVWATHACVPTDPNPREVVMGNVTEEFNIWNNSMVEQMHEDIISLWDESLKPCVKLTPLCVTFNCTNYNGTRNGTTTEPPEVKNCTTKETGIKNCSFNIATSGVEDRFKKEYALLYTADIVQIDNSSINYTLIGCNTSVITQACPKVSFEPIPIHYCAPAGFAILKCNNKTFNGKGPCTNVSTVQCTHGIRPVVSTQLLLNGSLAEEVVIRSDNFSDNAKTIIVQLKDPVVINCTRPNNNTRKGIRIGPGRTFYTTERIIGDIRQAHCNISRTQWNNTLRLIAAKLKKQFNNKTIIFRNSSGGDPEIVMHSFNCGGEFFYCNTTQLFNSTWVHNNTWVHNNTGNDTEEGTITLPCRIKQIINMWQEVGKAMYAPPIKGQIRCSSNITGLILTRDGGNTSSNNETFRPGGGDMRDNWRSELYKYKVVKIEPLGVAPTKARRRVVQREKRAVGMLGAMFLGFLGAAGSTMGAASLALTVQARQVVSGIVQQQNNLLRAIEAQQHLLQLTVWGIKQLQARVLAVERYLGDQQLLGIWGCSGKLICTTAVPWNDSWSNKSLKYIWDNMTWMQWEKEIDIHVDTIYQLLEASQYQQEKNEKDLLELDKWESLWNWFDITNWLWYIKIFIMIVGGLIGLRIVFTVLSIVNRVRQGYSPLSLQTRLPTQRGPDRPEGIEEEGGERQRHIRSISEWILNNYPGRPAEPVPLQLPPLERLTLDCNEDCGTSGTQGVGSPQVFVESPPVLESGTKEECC

SMILES | IC50
COC(=O)c1sc(-c2ccc(C(C)(C)C)cc2)cc1NC(=O)COCC(=O)O | 20.9 µM (active)
O=C(Nc1cccc(C(F)(F)F)c1)c1cccc(NS(=O)(=O)c2ccc(O)c(C(=O)O)c2)c1 | 8.83 µM (active)
